Measured values published in ChEMBL document CHEMBL1135366, “An N1-hydrogen bonding model for flavin coenzyme” (Bioorg Med Chem Lett, 2002).

Experiments:
[1] = Reaction constant k1 value for the oxidation of the 1-benzyl-dihydronicotinamide in 100 mM, pH 7.4 phosphate buffer at 15 degrees C
[2] = Reaction constant k1 value for sulfite (100 mM) addition at pH 7.4 phosphate buffer at 30 degrees C
[3] = Dissociation constant value was determined
[4] = Reaction constant k1 value for the oxidation of the 1-benzyl-dihydronicotinamide in 100 mM, pH 7.4 phosphate buffer at 30 degrees C
[5] = Reaction constant k-1 value for sulfite (100 mM) addition at pH 7.4 phosphate buffer at 30 degrees C

K1 [1] [M⁻¹ s⁻¹]	K1 [2] [M⁻¹ s⁻¹]	Kd [3] [mM]	K1 [4] [M⁻¹ s⁻¹]	K-1 [5] [min⁻¹]	Structure (SMILES)
10.8	0.00822	371	24.9	0.183	O=c1nc2n3c4c(cccc4nc-2c(=O)[nH]1)CCC3CO (configuration not stated)
15.5			42.9		Cn1c2nc(=O)[nH]c(=O)c-2nc2ccccc21
10.2	0.00738	1470	25.7	0.651	O=c1nc2n3c4c(cccc4nc-2c(=O)[nH]1)CCC3
